From article PMC3454376, “Salidroside Improves Behavioral and Histological Outcomes and Reduces Apoptosis via PI3K/Akt Signaling after Experimental Traumatic Brain Injury” (PLoS ONE, 2012)

System: mice subjected to controlled cortical impact injury
Assay: Modified neurological severity score (mNSS) after CCI
Type: in vivo
Method: All animal procedures were approved by the Animal Research Committee at Cheng Hsin General Hospital (Animal permit number […] 101-08), and all procedures complied with the Guide for the Care and Use of Laboratory Animals published by the US National Institutes of Health (NIH Publication No. 85-23, revised 1996). Animals were housed under a 12-h light/dark cycle and at constant temperature (21-25°C) and humidity (45-50%). They were allowed free access to pellet chow and water. TBI in mice was induced by a CCI injury model as previously described. Briefly, 8-week-old male C57BL/6 mice (weighing 22-25 g) were anesthetized through the use of intraperitoneal injection of sodium pentobarbital (65 mg/kg; Rhone Merieux, Harlow, UK) and placed in a stereotaxic frame. A 5 mm craniotomy was performed over the right parietal cortex, centered on the coronal suture and 0.1 mm lateral to the sagittal suture, and injury to dura was avoided. […] Body temperature was monitored throughout the surgery by a rectal probe; temperature was maintained at 37.0±0.5°C using a heated pad. […] To determine the optimal dose of salidroside, a pilot study was performed using 2 different doses (20 and 50 mg/kg) administered 10 min after injury, and neurological deficits and tissue damage were evaluated as the main outcomes. […]

OC[C@H]1O[C@@H](OCCc2ccc(O)cc2)[C@H](O)[C@@H](O)[C@@H]1O [SALD, salidroside]
mNSS scores versus vehicle group (20 mg/kg ip 10 min after CCI, days 4, 14, 21, 28, all P<0.05): significant lower | mNSS scores versus vehicle group (50 mg/kg ip 10 min after CCI, days 14, 21, 28, P<0.05): significantly lower
